Experimental findings from PMC11525786, “In silico and pharmacological evaluation of GPR65 as a cancer immunotherapy target regulating T-cell functions” (Frontiers in Immunology, 2024) are described below.

The target in the experiment is T1, GPR65 (Homo sapiens, UniProt Q8IYL9).
T1 construct: GPR65 overexpressed in A375 cells (rCD2-GPR65 tandem lentivector)
The experiment in a line: HTRF cAMP induction in GPR65-overexpressing A375 cells ([…] agonist, pH […]), blocked by GPR65 antagonists. The class given is cell-based. In general terms: TR-FRET usually uses a lanthanide donor and a delayed reading to cut background.

T1 sequence (Q8IYL9 whole entry): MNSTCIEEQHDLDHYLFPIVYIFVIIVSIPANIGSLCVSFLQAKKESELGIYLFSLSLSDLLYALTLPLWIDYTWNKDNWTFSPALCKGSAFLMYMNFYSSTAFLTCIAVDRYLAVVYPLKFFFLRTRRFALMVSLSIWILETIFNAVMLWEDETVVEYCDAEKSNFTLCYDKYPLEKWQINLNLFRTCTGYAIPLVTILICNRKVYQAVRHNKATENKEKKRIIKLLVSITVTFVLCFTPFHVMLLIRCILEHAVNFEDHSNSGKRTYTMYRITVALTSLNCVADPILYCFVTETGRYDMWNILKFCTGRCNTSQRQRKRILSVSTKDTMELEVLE

For the compound `CN1N=C(SCc2ccc(Cl)cc2Cl)Sc2c1cnn(C)c2=O` [BTB09089, 3-[(2,4-dichlorobenzyl)thio]-1,6-dimethyl-5,6-dihydro-1H-pyridazino [4,5-e][1,3,4]thiadiazin-5-one], the “HTRF cAMP induction in GPR65-overexpressing A375 cells (1 μM agonist, pH 7.5), b” value is listed as “capacity to inhibit cAMP biosynthesis upon GPR65 activation by BTB09089”.
